Test results reported in patent publication EP0647645A1, “Novel antitumoral and antiviral compound” (PHARMA MAR, S.A., priority 1993, dated 1995).

Columns and labels:
P-388 cells = assay: antitumoral assay, P-388 cell growth inhibition (cell counting); type: cell-based, DBA/2 mouse; conditions: three days of incubation
Method: (§1) Pateamine was diluted in MeOH/CH₂Cl₂ 1:1 at 100 ng/ml and it has been tested at different concentrations. The solvent was added to evaporate before the cells were seeded.
(§2) Four general antitumoral assays, employing the currently accepted screening protocols have been carried out using the following cells: P-388 (lymphoid neoplasm from DBA/2 mouse) A-549 (human lung carcinoma) HT-29 (human colon carcinoma) KB (human oral epidermoid carcinoma)
P-388 cells were seeded into 16 mm wells at 1 x 10⁴ per well in 1 ml aliquots of MEM 10FCS containing the indicated concentration or drug. All determinations were carried out in duplicate. After three days of incubation cells were counted and the IC₅₀ was determined. DATA TABLE-I

A-549 cells = assay: antitumoral assay, A-549 cell growth inhibition (cell counting); type: cell-based, human; conditions: three days of incubation
Method: as §1, §2
(§3) A-549 cells were seeded into 16 mm wells at 2 x 10⁴ per well. The day after the inoculum was replaced by 1 ml aliquots of MEM 10FCS containing the indicated concentration of drug. All determination were carried out in duplicate. After three days of incubation cells were counted and the IC₅₀ was determined. DATA TABLE-II

HT-29 cells = assay: antitumoral assay, HT-29 cell growth inhibition (cell counting); type: cell-based, human; conditions: four days of incubation
Method: as §1, §2
as §3, with “HT-29” for “A-549”, “4” for “2”, “determinations” for “determination”, “four” for “three”, “TABLE-III” for “TABLE-II”

KB cells = assay: antitumoral assay, KB cell growth inhibition (cell counting); type: cell-based, human; conditions: four days of incubation
Method: as §1, §2
as §3, with “KB” for “A-549”, “X” for “x”, “10⁴ cells” for “10⁴”, “determinations” for “determination”, “four” for “three”, “TABLE-IV” for “TABLE-II”

CV-1 cells [1] = assay: cytotoxicity assay, CV-1 cell growth inhibition (cell counting); type: cell-based, monkey; conditions: four days of incubation
Method: as §1
(§4) Two types of cytotoxicity assays were conducted, one of them employing conventional screening protocols and the other using the MTT method. In both cases the cells were: CV-1 (monkey kidney fibroblast) BHK (hamster kidney fibroblast)
as §3, with “CV-1” for “A-549”, “determinations” for “determination”, “four” for “three”, “TABLE-V” for “TABLE-II”

BHK cells [2] = assay: cytotoxicity assay, BHK cell growth inhibition (cell counting); type: cell-based, hamster; conditions: three days of incubation
Method: as §1, §4
as §3, with “BHK” for “A-549”, “X” for “x”, “determinations” for “determination”, “TABLE-VI” for “TABLE-II”

CV-1 cells [3] = assay: cytotoxicity assay, MTT method, CV-1 cells; type: cell-based, monkey; conditions: three days of incubation
Method: as §4
(§5) CV-1 and BHK cells were seeded into 9 mm wells at 1 x 10⁴ cells per well (logarithmic phase) and at 2 x 10⁵ cells per well (stationary phase). The day after the inoculum was replaced by […] aliquots of MEM 10FCS containing different concentrations of drug. All determinations were carried out in duplicate. After three days of incubation, 50 µl of medium containing 100 µg of MTT were added. Plates were incubated for two hours, medium was removed and 100 µl of isopropanol were added. The absorbencies were determined with a microtiter reader. DATA TABLE-VII

BHK cells [4] = assay: cytotoxicity assay, MTT method, BHK cells; type: cell-based, hamster; conditions: three days of incubation
Method: as §4, §5

[5] = tested on: HSV-1 (herpes simplex virus, type 1); assay: antiviral assay, plaque reduction, HSV-1 in CV-1 cells; type: cell-based
[6] = tested on: VSV (vesicular stomatitis virus); type: cell-based
P388 cell line = assay: P388 assay of fractions during isolation; type: cell-based; conditions: isolation fractions and free base form
Method: The sponge N.sp2 was extracted with methanol and a 3:1 mixture of methanol dichloromethane. An aqueous suspension of the entire 1 Kg extract of Mycale was extracted with three equivalent volumes of chloroform which was in turn back-extracted with distilled water. The organic extract (7.5 g) was loaded onto a C₁₈ flash column (200 g freshly prepared). Elution was started with 50% water/methanol, the methanol content was increased in steps to 100%, and then dichloromethane was added in gradual increments to 50%. Sixteen fractions were collected, weighed and assayed. Good total recovery of mass and activity was obtained with most of the activity confined to one fraction. […] A gradient solvent system was used (CH₂Cl₂, EtOAc, MeOH) and the fractions were monitored by TLC. Much of the fatty acids and pigments were eluted with the mixtures of CH₂Cl₂ and EtOAc, while a yellow charring (H₂SO₄ on silica) material came off in 5 - 20% MeOH in EtOAc. The fractions containing the yellow char were combined to yield a mass of 240 mg. […] This fraction was further purified using amino cartridges (500 mg). The activity was eluted with MeOH to yield 45 mg of material (IC₅₀ 0.5 ng/ml P388). Final purifications was obtained on a LH20 column using the eluting solvent system 9:1 MeOH/CH₂Cl₂ with 2% concentrated aqueous ammonia. This was selected to keep the active component in a free base form. […]

Balb/c lymphocytes = type: cell-based, mice
CV-1 cells [7] = assay: cytotoxicity in antiviral assay, inhibition zone on the CV-1 cell sheet; conditions: CV-1/HSV-1

pateamine
% Inhibition P-388 cell growth (P-388 cells; 0.1ng): 11%
% Inhibition P-388 cell growth (P-388 cells; 0.5ng): 0%
% Inhibition P-388 cell growth (P-388 cells; 1ng): 100%
% Inhibition P-388 cell growth (P-388 cells; 5ng): 100%
% Inhibition P-388 cell growth (P-388 cells; 10ng): 100%
IC₅₀ ng/ml approx. (P-388 cells; P-388 cell growth): ~0.3 ng/mL
% Inhibition A-549 cell growth (A-549 cells; 0.1ng): 0%
% Inhibition A-549 cell growth (A-549 cells; 0.5ng): 0%
% Inhibition A-549 cell growth (A-549 cells; 1ng): 71%
% Inhibition A-549 cell growth (A-549 cells; 5ng): 100%
% Inhibition A-549 cell growth (A-549 cells; 10ng): 100%
IC₅₀ ng/ml approx. (A-549 cells; A-549 cell growth): ~0.7 ng/mL
% Inhibition HT-29 cell growth (HT-29 cells; 0.1ng): 0%
% Inhibition HT-29 cell growth (HT-29 cells; 0.5ng): 0%
% Inhibition HT-29 cell growth (HT-29 cells; 1ng): 35%
% Inhibition HT-29 cell growth (HT-29 cells; 5ng): 85%
% Inhibition HT-29 cell growth (HT-29 cells; 10ng): 91%
IC₅₀ ng/ml approx. (HT-29 cells; HT-29 cell growth): ~2 ng/mL
% Inhibition KB cell growth (KB cells; 0.1ng): 70%
% Inhibition KB cell growth (KB cells; 0.5ng): 67%
% Inhibition KB cell growth (KB cells; 1ng): 96%
% Inhibition KB cell growth (KB cells; 5ng): 100%
% Inhibition KB cell growth (KB cells; 10ng): 100%
IC₅₀ ng/ml approx. (KB cells; KB cell growth): <0.05 ng/mL
% Inhibition CV-1 cell growth (CV-1 cells [1]; 0.1ng): 0%
% Inhibition CV-1 cell growth (CV-1 cells [1]; 0.5ng): 0%
% Inhibition CV-1 cell growth (CV-1 cells [1]; 1ng): 31%
% Inhibition CV-1 cell growth (CV-1 cells [1]; 5ng): 84%
% Inhibition CV-1 cell growth (CV-1 cells [1]; 10ng): 100%
IC₅₀ ng/ml approx. (CV-1 cells [1]; CV-1 cell growth): ~2.4 ng/mL
% Inhibition BHK cell growth (BHK cells [2]; 0.1ng): 0%
% Inhibition BHK cell growth (BHK cells [2]; 0.5ng): 0%
% Inhibition BHK cell growth (BHK cells [2]; 1ng): 0%
% Inhibition BHK cell growth (BHK cells [2]; 5ng): 98%
% Inhibition BHK cell growth (BHK cells [2]; 10ng): 100%
IC₅₀ ng/ml approx. (BHK cells [2]; BHK cell growth): ~3 ng/mL
IC₅₀ (CV-1 cells [3]; log. phase): 2.4 ng/mL
IC₅₀ (CV-1 cells [3]; stat. phase): >100 ng/mL
IC₅₀ (BHK cells [4]; log. phase): 3.7 ng/mL
IC₅₀ (BHK cells [4]; stat. phase): >100 ng/mL
% Inhibition CV-1/HSV-1 (plaque reduction sign) ([5]; 20ng): + (The sign (+), indicates that plaques are reduced by approx. 50-60%.)
% Inhibition CV-1/HSV-1 (plaque reduction sign) ([5]; 40ng): ++ (The sign (+ +), indicates that plaques are reduced by approx. 70-90%.)
% Inhibition CV-1/HSV-1 (plaque reduction sign) ([5]; 100ng): +++ (The sign (+ + +), indicates that plaques are reduced 100%.)
% Inhibition CV-1/HSV-1 (plaque reduction sign) ([5]; 200ng): +++ (The sign (+ + +), indicates that plaques are reduced 100%.)
% Inhibition CV-1/HSV-1 (plaque reduction sign) ([5]; 400ng): +++ (The sign (+ + +), indicates that plaques are reduced 100%.)
IC₅₀ ng/disk ([5]; CV-1/HSV-1, ( + ) is the approximately IC₅₀): 20 ng/disk
IC₅₀ ng/disk [6]: >20 ng/disk
IC₅₀ (P388 cell line): 0.15 ng/mL
IC₅₀ for the LcV (Balb/c lymphocytes): 4.1 µg/mL
cytotoxicity for the cells, inhibition zone on the cell sheet (CV-1 cells [7]; 10ng): 6
cytotoxicity for the cells, inhibition zone on the cell sheet (CV-1 cells [7]; 20ng): 10
cytotoxicity for the cells, inhibition zone on the cell sheet (CV-1 cells [7]; 40ng): 12
cytotoxicity for the cells, inhibition zone on the cell sheet (CV-1 cells [7]; 100ng): 14
cytotoxicity for the cells, inhibition zone on the cell sheet (CV-1 cells [7]; 200ng): 16
cytotoxicity for the cells, inhibition zone on the cell sheet (CV-1 cells [7]; 400ng): 16
